Drawing on PubChem BioAssay (NCI), this text covers GI50 and TGI for six compounds.

Each structure is given as a SMILES string. Where “and” joins values, the source holds several entries; their conditions need not be identical. Equal entries are not always repeated.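 Grown in 96-well plates, cells were treated for 48 hours with each compound at five concentrations. Insufficient inhibition: endpoint recorded as highest concentration tested. At the GI50, growth is halved. TGI: total growth inhibition.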

Among the test systems are HS 578T breast; SK-MEL-28 melanoma; MOLT-4 leukemia; RXF 393 renal; HT29 colon; OVCAR-5 ovarian; LOX IMVI melanoma; MDA-MB-435; NCI-H23 lung; NCI-H226 lung.
Common to all, as to assay: NCI-60 cell line screen, 48 h

As for `NC(N)=Nc1ccc(/C=C2\C=Cc3ccccc32)cc1`, the GI50 is 5.38 µM with HS 578T breast; 4.38 µM in the test with SK-MEL-28 melanoma; 2.41 µM with MOLT-4 leukemia; 2.14 µM with RXF 393 renal; 2.05 µM in the test with HT29 colon; 2.61 µM in the test with OVCAR-5 ovarian. Moreover, the GI50 in the test on LOX IMVI melanoma is 1.63 µM; in the test on MDA-MB-435 it was 1.84 µM; with NCI-H23 lung, 2.95 µM; in the test on NCI-H226 lung it was 5.73 µM. Also, the TGI with HS 578T breast was 28.6 µM; in the test on SK-MEL-28 melanoma it was 17.9 µM; in the test on MOLT-4 leukemia, 5.22 µM; in the test on RXF 393 renal it was 5.52 µM; in the test on HT29 colon, 4.11 µM; in the test with OVCAR-5 ovarian it was 6.77 µM. Besides, the TGI in the test on LOX IMVI melanoma was determined as 3.02 µM; in the test with MDA-MB-435, 3.92 µM; in the test with NCI-H23 lung, 10.4 µM; in the test with NCI-H226 lung it was 31.1 µM.

As to `Cc1ccccc1C(C(=O)NC1CCCCC1)N(C(=O)CNc1ccc(C#N)cc1)c1cccc(F)c1` (stereo not drawn), the GI50 with HS 578T breast is 7.05 µM; in the test on SK-MEL-28 melanoma, 32.4 µM; in the test with MOLT-4 leukemia, greater than 100 µM; in the test with RXF 393 renal it was 1.84 µM; in the test with HT29 colon it was greater than 100 µM; in the test on OVCAR-5 ovarian, 46.6 µM. In addition, the GI50 in the test on LOX IMVI melanoma was 44.9 µM; with MDA-MB-435 it was greater than 72.4 µM; in the test on NCI-H23 lung it was 25.1 µM; in the test with NCI-H226 lung, 14.1 µM. Moreover, the TGI in the test on HS 578T breast was 67.4 µM; with SK-MEL-28 melanoma, greater than 100 µM; with MOLT-4 leukemia it was greater than 100 µM; in the test on RXF 393 renal, 5.6 µM; with HT29 colon, greater than 100 µM; in the test with OVCAR-5 ovarian it was greater than 100 µM. The TGI is greater than 100 µM in the test on LOX IMVI melanoma, greater than 100 µM in the test on MDA-MB-435, greater than 77.6 µM in the test on NCI-H23 lung and greater than 94.5 µM in the test with NCI-H226 lung.

Turning to `CC(=O)OCC1OC(n2ncc(=O)[nH]c2=O)C(OC(C)=O)C1OC(C)=O` (stereo not drawn), the TGI in the test with HS 578T breast, in the test with SK-MEL-28 melanoma, with MOLT-4 leukemia, with RXF 393 renal, in the test with HT29 colon and in the test with OVCAR-5 ovarian was greater than 100 µM throughout. For the same compound, the TGI in the test with LOX IMVI melanoma, in the test on MDA-MB-435, with NCI-H23 lung and in the test on NCI-H226 lung was greater than 100 µM each time.

For the compound `O=C1CC(CC(OCc2ccccc2)C(OCc2ccccc2)C(COCc2ccccc2)OCc2ccccc2)CC(=O)N1` (stereo not drawn), the GI50 was > 100 µM and 16.5 µM with HS 578T breast; > 100 µM and 21.4 µM in the test with SK-MEL-28 melanoma; 24.5 µM and 2.72 µM in the test on RXF 393 renal; > 100 µM and 24.9 µM with OVCAR-5 ovarian; > 100 µM and 10.7 µM in the test on LOX IMVI melanoma; > 100 µM and 18.6 µM in the test on NCI-H23 lung. For the same compound, in the test on NCI-H226 lung, the GI50 is > 100 µM and 17.7 µM. Further, the TGI is > 100 µM and 33.9 µM in the test on HS 578T breast; greater than 100 µM in the test on SK-MEL-28 melanoma; > 100 µM and 35.3 µM in the test on MOLT-4 leukemia; > 100 µM and 15 µM in the test on RXF 393 renal; 18 µM with HT29 colon; > 100 µM and 80.8 µM in the test with OVCAR-5 ovarian. The TGI in the test with LOX IMVI melanoma is > 100 µM and 22.5 µM; in the test on MDA-MB-435 it was > 100 µM and 21.7 µM; with NCI-H23 lung, greater than 100 µM; in the test on NCI-H226 lung, > 100 µM and 62.4 µM.

For the compound `O=C1CC(N2C(=O)/C(=C/C(Cl)=C\c3ccc([N+](=O)[O-])cc3)SC2=S)C(=O)N1c1ccc(O)cc1` (stereo not drawn), the GI50 in the test on HS 578T breast was 2.8 µM; with SK-MEL-28 melanoma it was 1.95 µM; with MOLT-4 leukemia, 0.544 µM; with RXF 393 renal, 1.53 µM; in the test with HT29 colon, 0.847 µM; with OVCAR-5 ovarian, 1.91 µM. Besides, the GI50 was 2.01 µM in the test with MDA-MB-435, 1.56 µM with NCI-H23 lung and 2.41 µM in the test on NCI-H226 lung. Also, the TGI in the test with HS 578T breast is 12.6 µM; in the test with SK-MEL-28 melanoma it was 4.2 µM; in the test on MOLT-4 leukemia, 15.3 µM; in the test with RXF 393 renal, 3.22 µM; with HT29 colon, 8.78 µM; in the test on OVCAR-5 ovarian, 3.69 µM. Moreover, the TGI in the test with MDA-MB-435 turned out to be 4.34 µM; in the test on NCI-H23 lung, 3.52 µM; in the test with NCI-H226 lung, 6.82 µM.

Regarding `C=CCOC(=O)Nc1cccn([C@H](CC(C)C)C(=O)NCCC(C)C)c1=O`, the GI50 in the test on HS 578T breast was 87.8 µM; in the test on SK-MEL-28 melanoma it was greater than 100 µM; with MOLT-4 leukemia, 61.9 µM; with RXF 393 renal, greater than 100 µM; in the test with HT29 colon, greater than 100 µM; in the test with OVCAR-5 ovarian it was greater than 100 µM. The GI50 was greater than 100 µM in the test on MDA-MB-435, 57.2 µM in the test on NCI-H23 lung and greater than 100 µM in the test on NCI-H226 lung. The TGI in the test on HS 578T breast, in the test on SK-MEL-28 melanoma, with MOLT-4 leukemia, in the test on RXF 393 renal, with HT29 colon and in the test with OVCAR-5 ovarian was greater than 100 µM in each case. For the same compound, the TGI in the test with MDA-MB-435, in the test on NCI-H23 lung and in the test with NCI-H226 lung was greater than 100 µM in each case.
